Results taken from US20250368623A1, “PYRIDAZINONE-DERIVED COMPOUNDS FOR THE MODULATION OF MYC AND FOR MEDICAL USES” (GENETIC INTELLIGENCE, INC, priority 2022, published 2025).
pIC50: −log10 of the molar value.

Assays:
[1] = tested on: MDA-MB-231; assay: CCK-8 cell viability assay, MDA-MB-231; format: cell-based; conditions: Homo sapiens; CCK-8, MDA-MB-231, 2-day or 3-day incubation, cytotoxic effect
Procedure: (§1) The effect of test compounds on cell viability is determined using the CCK-8 assay kit (Dojindo CK04-1000) according to the following protocol. The human cancer cell lines (e.g., A549, HepG2, JeKo-1, MDA-MB-231, etc.) and non-cancer human cell lines (e.g., HEK-293, HaCaT, etc.), are seeded at 20,000 cells per well in a 96-well plate. After 1 day, the cells are treated with test compounds at various final concentrations (e.g., 10 nM, 31.6 nM, 100 nM, 316 nM, 1 μM, 3.16 μM, 10 μM, 20 μM, etc.). After a 2-day or 3-day incubation period, 10 μL of CCK-8 solution, which contains the WST-8 dye, is added to each well according to the kit manufacturer's protocol. After incubation for 1-4 hours, the absorbance at 450 nm is measured using a microplate reader. The absorbance at 450 nm measures the amount of WST-8 that is reduced to WST-8 formazan by cellular dehydrogenases, which is directly proportional to the number of living cells. The cytotoxic effect of test compounds at different concentrations is calculated by subtracting from 1 the ratio of absorbance of the compound-treated sample at 450 nm to that of the no-compound, solvent only (DMSO)-treated sample. A higher number indicates a greater cytotoxic effect of the test compound on cells (corresponding to a greater reduction in cellular dehydrogenase activity), and vice versa. The IC50 values for the cytotoxic effect of each test compound in A549, HepG2, JeKo-1, and/or MDA-MB-231 cells are determined by plotting a dose-response curve to calculate the concentration of test compound that produces half of the maximum cytotoxic effect. The cytotoxic effect and IC50 of test compounds are also measured in a non-cancer human cell line (e.g., HEK-293, and/or HaCaT) as a proxy for healthy cells to determine the therapeutic window of the test compounds (i.e., the concentration range at which the test compounds selectively kill cancer cells but not healthy cells). The therapeutic index of a test compound is defined herein as its IC50 in HEK-293 cells divided by its IC50 in HepG2 cells.

[2] = tested on: MYC protein; assay: Western blot of MYC protein in human cancer cell lines; format: cell-based; conditions: about 1 μM, 2-day incubation, e.g., A549 or HepG2, GAPDH loading control, vs DMSO
Procedure: The level of reduction of MYC protein following treatment with test compounds is also assessed by Western blot according to the following protocol. The human cancer cell lines (e.g., A549 or HepG2) are seeded at 20,000 cells per well in a 96-well plate. After 1 day, the cells are treated with test compounds at a final concentration of about 1 μM. After a 2-day incubation period, the supernatant is removed from the wells and RIPA buffer is added to create cell lysates. The lysates are analyzed by Western blot and probed with a MYC-specific antibody (e.g., Proteintech 10828-1-AP) together with a GAPDH-specific antibody (e.g., Proteintech 10494-1-AP) to serve as loading control. The intensities of Western blot bands are quantified by FIJI (Image J). The relative expression value of MYC following treatment with a test compound is calculated by dividing the intensity of the MYC band of the sample with the intensity of its own GAPDH band. The value so obtained is presented as a percentage of that of the no-compound, solvent only (DMSO)-treated sample. A lower percentage of MYC protein in a sample with respect to the DMSO-treated sample indicates greater percentage reduction in MYC protein level due to the test compound, and vice versa.

[3] = tested on: caspase 3/7 activation in HepG2; assay: ApoTox-Glo Triplex assay, caspase 3/7 activation in HepG2; format: cell-based, human; conditions: vs DMSO
Procedure: The effects of test compounds on cell viability and apoptosis are determined using the ApoTox-Glo Triplex assay kit (Promega G6320) according to the following protocol. The human cancer cell line (e.g., HepG2) and a non-cancer human cell line (e.g., HEK-293), are seeded at 20,000 cells per well in a 96-well plate. After 1 day, the cells are treated with test compounds at various final concentrations (e.g., 10 nM, 31.6 nM, 100 nM, 316 nM, 1 μM, 3.16 μM, 10 μM, 20 μM, etc.). After a 2-day incubation period, the ApoTox-Glo Triplex assay is performed according to the kit manufacturer's protocol. In brief, 20 μL of viability/cytotoxicity reagent containing both GF-AFC substrate (cell-permeant substrate to measure live-cell protease activity) and bis-AAF-R110 substrate (cell-impermeant substrate to measure dead-cell protease activity) is added to each sample, and briefly mixed by orbital shaking (300-500 rpm for ˜30 seconds). After incubation for 30 minutes at 37° C., the fluorescence signal is measured at two wavelength sets (400Ex/505Em) and (485Ex/520Em) to assess live-cell protease activity and dead-cell protease activity respectively. Following the measurement of the live-cell and dead-cell protease activities, 25 μl of Caspase-Glo 3/7 Reagent containing a luminogenic DEVD-peptide substrate for caspase-3/7 and thermostable luciferase is added to each sample, and briefly mixed by orbital shaking (1300-1500 rpm for ˜30 seconds). After incubation for 30 minutes at room temperature, the luminescent signal is measured using a microplate reader. The luminescent signal directly correlates with caspase-3/7 activity, which is a key indicator of apoptosis.
The fold-change of caspase 3/7 activation is calculated by dividing the luminescence signal of the compound-treated sample with that of the no-compound, solvent only (DMSO)-treated sample.

[4] = tested on: HepG2; assay: CellTiter-Glo 2.0 cell viability assay, HepG2; format: cell-based; conditions: Homo sapiens, 48 h; CellTiter-Glo 2.0, HepG2, 2-day incubation
Procedure: The effect of test compounds on cell viability is also determined using the CellTiter-Glo 2.0 assay kit (Promega G9241) according to the following protocol. The human cancer cell line (e.g., HepG2) and a non-cancer human cell line (e.g., HEK-293), are seeded at 20,000 cells per well in a 96-well plate. After 1 day, the cells are treated with test compounds at various concentrations (e.g., 10 nM, 31.6 nM, 100 nM, 316 nM, 1 μM, 3.16 μM, 10 μM, 20 μM, etc.). After a 2-day incubation period, the CellTiter-Glo 2.0 assay is performed according to the kit manufacturer's protocol. […] The contents are mixed for 2 minutes on an orbital shaker to induce cell lysis, and incubated for 10 minutes at room temperature, following which the luminescent signal is measured using a microplate reader. […] The cytotoxic effect of test compounds at different concentrations is calculated by subtracting from 1 the ratio of the luminescence signal of the compound-treated sample to that of the no-compound, solvent only (DMSO)-treated sample. […] The IC50 values for the cytotoxic effect of each test compound in HepG2 cells are determined by plotting a dose-response curve to calculate the concentration of test compound that produces half of the maximum cytotoxic effect. […]

[5] = tested on: HepG2; assay: ApoTox-Glo Triplex assay (live-dead ratio), HepG2; format: cell-based; conditions: Homo sapiens, 48 h, HepG2, 2-day incubation
Procedure: (§2) The effects of test compounds on cell viability and apoptosis are determined using the ApoTox-Glo Triplex assay kit (Promega G6320) according to the following protocol. The human cancer cell line (e.g., HepG2) and a non-cancer human cell line (e.g., HEK-293), are seeded at 20,000 cells per well in a 96-well plate. After 1 day, the cells are treated with test compounds at various final concentrations (e.g., 10 nM, 31.6 nM, 100 nM, 316 nM, 1 μM, 3.16 μM, 10 μM, 20 μM, etc.). After a 2-day incubation period, the ApoTox-Glo Triplex assay is performed according to the kit manufacturer's protocol. […] After incubation for 30 minutes at 37° C., the fluorescence signal is measured at two wavelength sets (400Ex/505Em) and (485Ex/520Em) to assess live-cell protease activity and dead-cell protease activity respectively. […] After incubation for 30 minutes at room temperature, the luminescent signal is measured using a microplate reader. […]
(§3) The cytotoxic effect of test compounds according to the ApoTox-Glo Triplex assay is calculated as follows. The live-dead ratio is calculated by dividing the fluorescence signal for live-cell protease activity with the fluorescence signal for dead-cell protease activity. […]

[6] = tested on: JeKo-1; assay: CCK-8 cell viability assay, JeKo-1; format: cell-based; conditions: Homo sapiens; CCK-8, JeKo-1, 2-day or 3-day incubation, cytotoxic effect
Procedure: as §1

[7] = tested on: A549; assay: CCK-8 cell viability assay, A549; format: cell-based; conditions: Homo sapiens; CCK-8, A549, 2-day or 3-day incubation, cytotoxic effect
Procedure: The effect of test compounds on cell viability is determined using the CCK-8 assay kit (Dojindo CK04-1000) according to the following protocol. The human cancer cell lines (e.g., A549, HepG2, JeKo-1, MDA-MB-231, etc.) and non-cancer human cell lines (e.g., HEK-293, HaCaT, etc.), are seeded at 20,000 cells per well in a 96-well plate. After 1 day, the cells are treated with test compounds at various final concentrations (e.g., 10 nM, 31.6 nM, 100 nM, 316 nM, 1 μM, 3.16 μM, 10 μM, 20 μM, etc.). After a 2-day or 3-day incubation period, 10 μL of CCK-8 solution, which contains the WST-8 dye, is added to each well according to the kit manufacturer's protocol. After incubation for 1-4 hours, the absorbance at 450 nm is measured using a microplate reader. The absorbance at 450 nm measures the amount of WST-8 that is reduced to WST-8 formazan by cellular dehydrogenases, which is directly proportional to the number of living cells. The cytotoxic effect of test compounds at different concentrations is calculated by subtracting from 1 the ratio of absorbance of the compound-treated sample at 450 nm to that of the no-compound, solvent only (DMSO)-treated sample. […]

[8] = tested on: HEK-293; assay: ApoTox-Glo Triplex assay (live-dead ratio), HEK-293; format: cell-based; conditions: Homo sapiens, HEK293, 48 h, HEK-293, 2-day incubation
Procedure: as §2, §3

[9] = tested on: HepG2; assay: CCK-8 cell viability assay, HepG2; format: cell-based; conditions: Homo sapiens; CCK-8, HepG2, 2-day or 3-day incubation, cytotoxic effect
Procedure: The effect of test compounds on cell viability is determined using the CCK-8 assay kit (Dojindo CK04-1000) according to the following protocol. The human cancer cell lines (e.g., A549, HepG2, JeKo-1, MDA-MB-231, etc.) and non-cancer human cell lines (e.g., HEK-293, HaCaT, etc.), are seeded at 20,000 cells per well in a 96-well plate. After 1 day, the cells are treated with test compounds at various final concentrations (e.g., 10 nM, 31.6 nM, 100 nM, 316 nM, 1 μM, 3.16 μM, 10 μM, 20 μM, etc.). After a 2-day or 3-day incubation period, 10 μL of CCK-8 solution, which contains the WST-8 dye, is added to each well according to the kit manufacturer's protocol. After incubation for 1-4 hours, the absorbance at 450 nm is measured using a microplate reader. The absorbance at 450 nm measures the amount of WST-8 that is reduced to WST-8 formazan by cellular dehydrogenases, which is directly proportional to the number of living cells. The cytotoxic effect of test compounds at different concentrations is calculated by subtracting from 1 the ratio of absorbance of the compound-treated sample at 450 nm to that of the no-compound, solvent only (DMSO)-treated sample. […] The IC50 values for the cytotoxic effect of each test compound in A549, HepG2, JeKo-1, and/or MDA-MB-231 cells are determined by plotting a dose-response curve to calculate the concentration of test compound that produces half of the maximum cytotoxic effect.

[10] = tested on: MYC protein; assay: MYC HTRF assay, MYC protein level in human cell lines; format: cell-based; conditions: about 20 μM, 2-day incubation, human cell lines (e.g., A549, HepG2), vs DMSO-treated sample
Procedure: The MYC homogenous time-resolved fluorescence (HTRF) assay kit (CisBio/Perkin Elmer 63ADK053PEG) is used to quantify the level of MYC protein in human cell lines (e.g., A549, HepG2) following treatment with test compounds, according to the following protocol. Human cells cultured in DMEM-10% FBS media are seeded at 20,000 cells per well in a 96-well plate. After 1 day, the cells are treated with test compounds at a final concentration of about 20 μM. After a 2-day incubation period, the supernatant is removed from the wells and the HTRF assay is carried out according to the kit manufacturer's protocol. In brief, lysis buffer #4 is added to create cell lysates. 10 μL of cell lysate is added to 10 μL of premixed antibody solution (anti-human My c-Eu cryptate antibody and anti-human Myc-d2 antibody) prepared in detection buffer #3 in a 384-well low-volume white-walled plated. After 3 h of incubation, fluorescence readings are taken at the emission wavelengths of donor and acceptor fluorophores (620 nm and 665 nm respectively) using a HTRF-compatible plate reader. The ratio of acceptor and donor fluorescence emission signals for each sample is calculated by dividing the fluorescence signal at 665 nm by the signal at 620 nm, and further normalized by dividing with the concentration of total protein in that sample as determined by the BCA assay. The values so obtained are presented as a percentage of that of the no-compound, solvent only (DMSO)-treated samples. A lower percentage of MYC protein in a sample with respect to the DMSO-treated sample indicates greater percentage reduction in MYC protein level due to the test compound, and vice versa.

Cc1nc(C)c(-c2ccc(=O)n(CC3CCN(c4ncnc5ncccc45)CC3)n2)s1 [6-(2,4-dimethylthiazol-5-yl)-2-((1-(pyrido[2,3-d]pyrimidin-4-yl)piperidin-4-yl)methyl)pyridazin-3(2H)-one]
pIC50 [1]: 6.10
% reduction of MYC protein [2]: 67%
Fold-change of caspase 3/7 activation ([3]; HepG2, compound concentration 10 nM): 1.245
Fold-change of caspase 3/7 activation ([3]; HepG2, compound concentration 31.6 nM): 1.204
Fold-change of caspase 3/7 activation ([3]; HepG2, compound concentration 100 nM): 0.853
Fold-change of caspase 3/7 activation ([3]; HepG2, compound concentration 316 nM): 0.586
Fold-change of caspase 3/7 activation ([3]; HepG2, compound concentration 1000 nM): 0.420
Fold-change of caspase 3/7 activation ([3]; HepG2, compound concentration 3160 nM): 0.371
Fold-change of caspase 3/7 activation ([3]; HepG2, compound concentration 10000 nM): 0.308
Fold-change of caspase 3/7 activation ([3]; HepG2, compound concentration 20000 nM): 0.280
pIC50 [4]: 7.00
pIC50 [5]: 7.00
pIC50 [6]: 6.40
pIC50 [7]: 5.89
pIC50 [8]: 4.44
pIC50 [9]: 6.52
% reduction of MYC protein [10]: 72%
